Laboratory results: ChEMBL document CHEMBL1146712, “Synthesis and biological evaluation of [4-(2-phenylethenesulfonylmethyl)phenyl]-quinazolin-4-yl-amines as orally active anti-cancer agents” (2004)

Key:
[1] = system: DU-145; assay: In vitro inhibition of DU145 (human prostate cancer) cell growth.; format: functional
[2] = system: HT-29; assay: Concentration required to inhibit growth of human colon (HT-29) cell line; format: functional
[3] = system: MCF7; assay: Concentration required to inhibit growth of human breast (MCF-7) cell line; format: functional
[4] = system: OVCAR-8; assay: Concentration required to inhibit growth of human ovarian (OVCAR8) cell line; format: functional
[5] = system: PC-3; assay: Concentration required to inhibit growth of human prostate (PC3) cell line; format: functional
[6] = system: SW-620; assay: Concentration required to inhibit growth of human colon (SW620) cell line; format: functional
[7] = system: UACC-62; assay: Concentration required to inhibit growth of human melanoma (UACC62) cell line; format: functional
[8] = system: U-251; assay: Concentration required to inhibit growth of human CNS (U251) cell line; format: functional
[9] = system: NCI-H522 (Homo sapiens); assay: Concentration required to inhibit growth of human lung (H522) cell line
[10] = system: ACHN; assay: Concentration required to inhibit growth of human renal (ACHN) cell line; format: functional
[11] = system: NCI/ADR-RES; assay: in vitro inhibition of MCF-7/ADR (human breast cancer) cell growth.; format: functional
[12] = system: SK-OV-3; assay: Concentration required to inhibit growth of human ovarian (SK-OV3) cell line; format: functional

Row | Compound | GI50 [1] | GI50 [2] | GI50 [3] | GI50 [4] | GI50 [5] | GI50 [6] | GI50 [7] | GI50 [8] | GI50 [9] | GI50 [10] | GI50 [11] | GI50 [12]
1 | O=S(=O)(/C=C/c1ccc(O)cc1)Cc1ccc(Nc2ncnc3ccc(Br)cc23)cc1 | 3000 nM | 9 µM | 32 µM | > 100 µM | 42 µM | 94 µM | 28 µM | > 100 µM | 27 µM |  |  | 
2 | O=S(=O)(/C=C/c1ccccc1)Cc1ccc(Nc2ncnc3ccccc23)cc1 | 2000 nM | > 100 µM | 74 µM | > 100 µM | > 100 µM | > 100 µM | > 100 µM | > 100 µM | > 100 µM | 58 µM | > 100 µM | 5 µM
3 | COc1cc2ncnc(Nc3ccc(CS(=O)(=O)/C=C/c4ccc(Br)cc4)cc3)c2cc1OC |  | 24 µM | 32 µM | 6 µM | 9.5 µM | 5 µM | 63 µM | 11 µM | 8 µM | 4 µM | 72 µM | 50 µM
4 | COc1cc2ncnc(Nc3ccc(CS(=O)(=O)/C=C/c4ccc(F)cc4)cc3)c2cc1OCCN1CCOCC1 |  | 100 µM | 100 µM | 48 µM | 100 µM | 100 µM | 100 µM | 100 µM | 100 µM | 66 µM |  | 36 µM
5 | O=S(=O)(/C=C/c1ccc(C(F)(F)F)cc1F)Cc1ccc(Nc2ncnc3ccc(Br)cc23)cc1 |  | 100 µM | 32 µM | 15 µM | 58 µM | 55 µM | 22 µM | 30 µM | 40 µM | 16 µM | 85 µM | 5 µM
6 | O=S(=O)(/C=C/c1ccc(Cl)cc1)Cc1ccc(Nc2ncnc3ccc(Br)cc23)cc1 | 1000 nM | > 100 µM | 46 µM | 3 µM | 2 µM | 45 µM | 15 µM | 30 µM | 13 µM |  |  | 
7 | O=S(=O)(/C=C/c1ccc(F)cc1Cl)Cc1ccc(Nc2ncnc3cc(Cl)ccc23)cc1 | 37000 nM | > 100 µM | 15 µM | > 100 µM | 73 µM | > 100 µM | 72 µM | 2 µM |  | 17 µM | > 100 µM | > 100 µM
8 | O=S(=O)(/C=C/c1ccc(Cl)c(Cl)c1)Cc1ccc(Nc2ncnc3ccccc23)cc1 |  | 11 µM | 28 µM | 14 µM | 35 µM | 41 µM | 21 µM | 11 µM | 32 µM | 28 µM | 22 µM | 22 µM
9 | O=S(=O)(/C=C/c1ccc(C(F)(F)F)cc1F)Cc1ccc(Nc2ncnc3ccccc23)cc1 |  | 100 µM | 100 µM | 100 µM | 100 µM | 100 µM | 100 µM | 100 µM | 100 µM | 100 µM | 100 µM | 39 µM
10 | O=S(=O)(/C=C/c1ccc(Br)cc1)Cc1ccc(Nc2ncnc3ccccc23)cc1 | 55000 nM | > 100 µM | 91 µM | 38 µM | 42 µM | > 100 µM | > 100 µM | > 100 µM | > 100 µM | 0.2 µM | > 100 µM | 1 µM
11 | O=S(=O)(/C=C/c1ccc(F)cc1F)Cc1ccc(Nc2ncnc3ccccc23)cc1 |  | > 100 µM | > 100 µM | > 100 µM | > 100 µM | 86 µM | > 100 µM | > 100 µM |  | 31 µM | > 100 µM | 69 µM
12 | O=S(=O)(/C=C/c1ccc(O)cc1)Cc1ccc(Nc2ncnc3ccccc23)cc1 | 19000 nM | 2 µM | 100 µM | 1 µM | 14 µM | 100 µM | 100 µM | 0.3 µM | 100 µM | 0.02 µM |  | 14 µM
13 | O=S(=O)(/C=C/c1ccc(F)cc1F)Cc1ccc(Nc2ncnc3ccc(Br)cc23)cc1 |  | 100 µM | 100 µM | 100 µM | 100 µM | 100 µM | 3 µM | 32 µM | 100 µM | 8 µM | 100 µM | 2 µM
14 | COc1cc2ncnc(Nc3ccc(CS(=O)(=O)/C=C/c4ccc(Cl)cc4Cl)cc3)c2cc1OCCCN1CCOCC1 | 1300 nM | 4 µM | 54 µM | 12 µM | 5 µM | 7 µM | 23 µM | 4 µM |  | 3.4 µM | > 100 µM | 2.4 µM
15 | CC(C)(C)c1cc(/C=C/S(=O)(=O)Cc2ccc(Nc3ncnc4ccccc34)cc2)cc(C(C)(C)C)c1O | 1000 nM | 17 µM | 13 µM | 5 µM | 7 µM | 9 µM | 6 µM | 38 µM | 45 µM | > 100 µM | > 100 µM | 3 µM
16 | O=S(=O)(/C=C/c1ccc(Cl)cc1Cl)Cc1ccc(Nc2ncnc3cc(Cl)ccc23)cc1 |  | 59 µM | 25 µM | > 100 µM | 38 µM | > 100 µM | 32 µM | 53 µM | 76 µM | 8 µM | > 100 µM | 48 µM
17 | O=S(=O)(/C=C/c1ccc(Cl)c(Cl)c1)Cc1ccc(Nc2ncnc3ccc(Br)cc23)cc1 | 17000 nM | 27 µM | 14 µM | 0.1 µM | 11 µM | 5 µM | 30 µM | > 100 µM | > 100 µM |  |  | 
18 | O=S(=O)(/C=C/c1ccc(F)cc1Cl)Cc1ccc(Nc2ncnc3ccccc23)cc1 |  | 100 µM | 21 µM | 100 µM | 100 µM | 100 µM | 100 µM | 100 µM | 100 µM | 73 µM | 66 µM | 44 µM
19 | O=S(=O)(/C=C/c1ccc(Br)cc1)Cc1ccc(Nc2ncnc3ccc(Br)cc23)cc1 | 3000 nM | 10 µM | 5 µM | 2 µM | 34 µM | > 100 µM | > 100 µM | 11 µM | 20 µM |  |  | 
